Series [1] can be described thus: Protective activity against Daboia russellii venom-induced mortality in Swiss albino mouse at 6 mmol, iv administered immediately after venom injection measured after 24 hrs relative to untreated control. In kind it is functional, Daboia russelii.
Series [2] is described as follows: Protective activity against Naja kaouthia venom-induced mortality in Swiss albino mouse at 6 mmol, iv preincubated with venom for 1 hr followed by administration to mouse measured after 24 hrs relative to untreated control. In kind it is functional.
A short description of series [3]: Protective activity against Daboia russellii venom-induced hemorrhage in intradermally dosed Swiss albino mouse at 6 mmol assessed as hemorhagic lesion preincubated with venom for 1 hr followed by administration to mouse measured after 24 hrs relative to untreated control. In kind it is functional, Daboia russelii.
A short description of series [4]: Protective activity against Daboia russellii venom-induced mortality in Swiss albino mouse at 6 mmol, iv by measuring venom LD50 administered immediately after venom injection measured after 24 hrs (reference value: 2.28ug). The class given is functional, Daboia russelii.
A short description of series [5]: Protective activity against Naja kaouthia venom-induced mortality in Swiss albino mouse at 6 mmol, iv by measuring venom LD50 preincubated with venom for 1 hr followed by administration to mouse measured after 24 hrs (reference value: 2.82 ug). The class given is functional.
A short description of series [6]: Protective activity against Daboia russellii venom-induced hemorrhage in Swiss albino mouse at 6 mmol, iv assessed as hemorhagic lesion by measuring […] administered immediately after venom injection measured after 24 hrs (Rvb =5 ug). The class given is functional, Daboia russelii.
Series [7] in a line: Lipophilicity, log P of compound. The class given is physicochemical. The following applies: octanol/water; read-out: logP.
Series [8] can be described thus: Protective activity against Naja kaouthia venom-induced mortality in Swiss albino mouse at 6 mmol, iv by measuring venom LD50 administered immediately after venom injection measured after 24 hrs (reference value: 2.82 ug). In kind it is functional.
The nature of series [9]: Protective activity against Daboia russellii venom-induced hemorrhage in intradermally dosed Swiss albino mouse at 6 mmol assessed as hemorhagic lesion by measuring minimal […] dose preincubated with venom for 1 hr followed by administration to mouse measured after 24 hrs (reference value: 5 ug). The class given is functional, Daboia russelii.
Series [10] can be described thus: Protective activity against Daboia russellii venom-induced mortality in Swiss albino mouse at 6 mmol, iv preincubated with venom for 1 hr followed by administration to mouse measured after 24 hrs relative to untreated control. The class given is functional, Daboia russelii.
The nature of series [11]: Protective activity against Daboia russellii venom-induced hemorrhage in Swiss albino mouse at 6 mmol, iv assessed as hemorhagic lesion administered immediately after venom injection measured after 24 hrs relative to untreated control. In kind it is functional, Daboia russelii.
Series [12] in a line: Protective activity against Daboia russellii venom-induced mortality by measuring venom LD50 in Swiss albino mouse at 6 mmol, iv preincubated with venom for 1 hr followed by administration to mouse measured after 24 hrs (reference value: 2.28 ug). In kind it is functional, Daboia russelii.
The nature of series [13]: Protective activity against Naja kaouthia venom-induced mortality in Swiss albino mouse at 6 mmol, iv administered immediately after venom injection measured after 24 hrs relative to untreated control. In kind it is functional.

Turning to `COc1ccc(C(=O)O)c(O)c1` [4-METHOXYSALICYLIC ACID], the “fold change (FC)” value in series [1] is on record as 3.75; in series [2], 3.2; in [3] it was 4; in [10], 9.8; in series [11], 2; in series [13], 2. Also, the LD50 in [4] was 150 µg; in [5], 9 µg; in series [8], 10 µg; in series [12], 22 µg. Moreover, the figures for the MHC in series [6] and in series [9] were 10 µg and 20 µg, respectively. Besides, the logP (usually a log measure of how a compound divides between an organic and an aqueous phase) in [7] was determined as 1.21.
